ChEMBL document CHEMBL1201862, “PubChem BioAssay data set” (2004)
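48-hour exposure; five concentrations; linearly interpolated endpoints. GI50 marks 50% less growth.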 Active and inactive are the calls of the source. Rule as the data show it: active = GI50 up to about 1.1 µM and inactive = higher.

Columns and labels:
Assay in all cases: DTP human tumour cell line panel, 48 h
786-0 = tested on: 786-0
A549 = tested on: A549
ACHN = tested on: ACHN
BT-549 = tested on: BT-549
CAKI-1 = tested on: CAKI-1
CCRF-CEM = tested on: CCRF-CEM
COLO 205 = tested on: COLO 205
DU-145 = tested on: DU-145
EKVX = tested on: EKVX
HCC 2998 = tested on: HCC 2998
HCT-116 = tested on: HCT-116
HL-60 = tested on: HL-60
HOP-62 = tested on: HOP-62
HOP-92 = tested on: HOP-92
HT-29 = tested on: HT-29
Hs-578T = tested on: Hs-578T
IGROV-1 = tested on: IGROV-1
K562 = tested on: K562
KM12 = tested on: KM12
M14 = tested on: M14
MCF7 = tested on: MCF7
MDA-MB-231 = tested on: MDA-MB-231
MDA-MB-435 = tested on: MDA-MB-435
MDA-N = tested on: MDA-N
MOLT-4 = tested on: MOLT-4
Malme-3M = tested on: Malme-3M
NCI-H23 = tested on: NCI-H23
NCI-H460 = tested on: NCI-H460
NCI-H522 = tested on: NCI-H522
NCI/ADR-RES = tested on: NCI/ADR-RES
OVCAR-3 = tested on: OVCAR-3
OVCAR-4 = tested on: OVCAR-4
OVCAR-5 = tested on: OVCAR-5
OVCAR-8 = tested on: OVCAR-8
RPMI-8226 = tested on: RPMI-8226
SF-268 = tested on: SF-268
SF-295 = tested on: SF-295
SF-539 = tested on: SF-539
SK-MEL-28 = tested on: SK-MEL-28
SK-MEL-2 = tested on: SK-MEL-2
SK-MEL-5 = tested on: SK-MEL-5
SK-OV-3 = tested on: SK-OV-3
SN12C = tested on: SN12C
SNB-19 = tested on: SNB-19
SNB-75 = tested on: SNB-75
SR = tested on: SR
T47D = tested on: T47D
TK-10 = tested on: TK-10
U-251 = tested on: U-251
UACC-257 = tested on: UACC-257
UACC-62 = tested on: UACC-62
UO-31 = tested on: UO-31
A498 = tested on: A498
HCT-15 = tested on: HCT-15
LOX IMVI = tested on: LOX IMVI
NCI-H226 = tested on: NCI-H226
PC-3 = tested on: PC-3
RXF 393 = tested on: RXF 393
SW-620 = tested on: SW-620

O=C(O)c1ccc(Nc2nc3ccccc3nc2C(=O)O)cc1
GI50 (786-0): > 100 µM (inactive) | GI50 (A549): > 100 µM (inactive) | GI50 (ACHN): > 100 µM (inactive) | GI50 (BT-549): > 100 µM (inactive) | GI50 (CAKI-1): > 100 µM (inactive) | GI50 (CCRF-CEM): > 100 µM (inactive) | GI50 (COLO 205): > 100 µM (inactive) | GI50 (DU-145): > 100 µM (inactive) | GI50 (EKVX): > 100 µM (inactive) | GI50 (HCC 2998): > 100 µM (inactive) | GI50 (HCT-116): > 100 µM (inactive) | GI50 (HL-60): > 10 µM (inactive) | GI50 (HOP-62): > 100 µM (inactive) | GI50 (HOP-92): > 100 µM (inactive) | GI50 (HT-29): > 100 µM (inactive) | GI50 (Hs-578T): > 100 µM (inactive) | GI50 (IGROV-1): > 100 µM (inactive) | GI50 (K562): > 100 µM (inactive) | GI50 (KM12): > 100 µM (inactive) | GI50 (M14): > 100 µM (inactive) | GI50 (MCF7): > 100 µM (inactive) | GI50 (MDA-MB-231): > 100 µM (inactive) | GI50 (MDA-MB-435): > 100 µM (inactive) | GI50 (MDA-N): > 100 µM (inactive) | GI50 (MOLT-4): > 100 µM (inactive) | GI50 (Malme-3M): > 100 µM (inactive) | GI50 (NCI-H23): > 100 µM (inactive) | GI50 (NCI-H460): > 100 µM (inactive) | GI50 (NCI-H522): > 100 µM (inactive) | GI50 (NCI/ADR-RES): > 100 µM (inactive) | GI50 (OVCAR-3): > 100 µM (inactive) | GI50 (OVCAR-4): > 100 µM (inactive) | GI50 (OVCAR-5): > 100 µM (inactive) | GI50 (OVCAR-8): > 100 µM (inactive) | GI50 (RPMI-8226): > 100 µM (inactive) | GI50 (SF-268): > 100 µM (inactive) | GI50 (SF-295): > 100 µM (inactive) | GI50 (SF-539): > 100 µM (inactive) | GI50 (SK-MEL-28): > 100 µM (inactive) | GI50 (SK-MEL-2): > 100 µM (inactive) | GI50 (SK-MEL-5): > 100 µM (inactive) | GI50 (SK-OV-3): > 100 µM (inactive) | GI50 (SN12C): > 100 µM (inactive) | GI50 (SNB-19): > 100 µM (inactive) | GI50 (SNB-75): > 100 µM (inactive) | GI50 (SR): > 100 µM (inactive) | GI50 (T47D): > 100 µM (inactive) | GI50 (TK-10): > 100 µM (inactive) | GI50 (U-251): > 100 µM (inactive) | GI50 (UACC-257): > 100 µM (inactive) | GI50 (UACC-62): > 100 µM (inactive) | GI50 (UO-31): > 100 µM (inactive)

CCOC(=O)/C(=C\NCc1ccc2c(c1)OCO2)c1nc2ccccc2[nH]1
GI50 (786-0): 36.9 µM (inactive) | GI50 (A498): > 100 µM (inactive) | GI50 (A549): 35.4 µM (inactive) | GI50 (ACHN): 38.4 µM (inactive) | GI50 (BT-549): 83.4 µM (inactive) | GI50 (CAKI-1): > 100 µM (inactive) | GI50 (CCRF-CEM): 42 µM (inactive) | GI50 (COLO 205): 32.7 µM (inactive) | GI50 (DU-145): > 100 µM (inactive) | GI50 (EKVX): > 100 µM (inactive) | GI50 (HCC 2998): 42.7 µM (inactive) | GI50 (HCT-116): 39.8 µM (inactive) | GI50 (HCT-15): 44.9 µM | GI50 (HL-60): 48.8 µM (inactive) | GI50 (HOP-62): 71.3 µM (inactive) | GI50 (HOP-92): 71.9 µM (inactive) | GI50 (HT-29): 24.6 µM (inactive) | GI50 (Hs-578T): 56.8 µM (inactive) | GI50 (IGROV-1): 40.3 µM (inactive) | GI50 (K562): 52.2 µM (inactive) | GI50 (KM12): 42.7 µM (inactive) | GI50 (LOX IMVI): 42.2 µM (inactive) | GI50 (M14): 47.2 µM (inactive) | GI50 (MCF7): 59.8 µM (inactive) | GI50 (MDA-MB-435): 48.6 µM (inactive) | GI50 (MDA-N): 75 µM (inactive) | GI50 (MOLT-4): 30.5 µM (inactive) | GI50 (Malme-3M): 41.7 µM (inactive) | GI50 (NCI-H226): > 100 µM (inactive) | GI50 (NCI-H23): 25.6 µM (inactive) | GI50 (NCI-H460): 24.9 µM (inactive) | GI50 (NCI-H522): 28.2 µM (inactive) | GI50 (NCI/ADR-RES): 60.3 µM (inactive) | GI50 (OVCAR-3): 43 µM (inactive) | GI50 (OVCAR-4): 57.3 µM (inactive) | GI50 (OVCAR-5): 94.8 µM (inactive) | GI50 (OVCAR-8): 43 µM (inactive) | GI50 (PC-3): 50 µM (inactive) | GI50 (RPMI-8226): 25.5 µM (inactive) | GI50 (RXF 393): > 100 µM (inactive) | GI50 (SF-268): 61.4 µM (inactive) | GI50 (SF-295): 53.5 µM (inactive) | GI50 (SF-539): 35.4 µM (inactive) | GI50 (SK-MEL-28): 60.7 µM (inactive) | GI50 (SK-MEL-2): 48.4 µM (inactive) | GI50 (SK-MEL-5): 25.8 µM (inactive) | GI50 (SK-OV-3): > 100 µM (inactive) | GI50 (SN12C): > 100 µM (inactive) | GI50 (SNB-19): 46.9 µM (inactive) | GI50 (SNB-75): 77.3 µM (inactive) | GI50 (SR): 48.1 µM (inactive) | GI50 (SW-620): 98.2 µM (inactive) | GI50 (T47D): 35.9 µM (inactive) | GI50 (TK-10): 22.8 µM (inactive) | GI50 (U-251): 82 µM (inactive) | GI50 (UACC-257): 64.6 µM (inactive) | GI50 (UACC-62): 26.9 µM (inactive) | GI50 (UO-31): 79.4 µM (inactive)

COc1ccccc1[S+]([O-])Nc1ccccc1 (stereo unspecified)
GI50 (786-0): > 100 µM (inactive) | GI50 (A549): 74.6 µM (inactive) | GI50 (ACHN): 87.7 µM (inactive) | GI50 (BT-549): 17.4 µM (inactive) | GI50 (CCRF-CEM): 54.5 µM (inactive) | GI50 (COLO 205): > 100 µM (inactive) | GI50 (DU-145): > 100 µM (inactive) | GI50 (EKVX): > 100 µM (inactive) | GI50 (HCC 2998): 83.2 µM (inactive) | GI50 (HCT-116): 51.1 µM (inactive) | GI50 (HCT-15): 22.8 µM | GI50 (HL-60): 82.8 µM (inactive) | GI50 (HOP-62): > 100 µM (inactive) | GI50 (HT-29): 50.9 µM (inactive) | GI50 (Hs-578T): 76 µM (inactive) | GI50 (IGROV-1): 37.2 µM (inactive) | GI50 (K562): 25.4 µM (inactive) | GI50 (KM12): 12.5 µM (inactive) | GI50 (LOX IMVI): 71.9 µM (inactive) | GI50 (MCF7): > 100 µM (inactive) | GI50 (MDA-MB-231): > 100 µM (inactive) | GI50 (MDA-MB-435): 31 µM (inactive) | GI50 (MDA-N): > 100 µM (inactive) | GI50 (MOLT-4): 32.2 µM (inactive) | GI50 (Malme-3M): > 100 µM (inactive) | GI50 (NCI-H226): > 100 µM (inactive) | GI50 (NCI-H23): > 100 µM (inactive) | GI50 (NCI-H460): 88.1 µM (inactive) | GI50 (NCI-H522): 38.2 µM (inactive) | GI50 (NCI/ADR-RES): 91.4 µM (inactive) | GI50 (OVCAR-3): > 100 µM (inactive) | GI50 (OVCAR-4): > 100 µM (inactive) | GI50 (OVCAR-5): > 100 µM (inactive) | GI50 (OVCAR-8): > 100 µM (inactive) | GI50 (RPMI-8226): 72.9 µM (inactive) | GI50 (SF-268): 16.7 µM (inactive) | GI50 (SF-295): > 100 µM (inactive) | GI50 (SF-539): 25.3 µM (inactive) | GI50 (SK-MEL-28): > 100 µM (inactive) | GI50 (SK-MEL-2): 34 µM (inactive) | GI50 (SK-MEL-5): 25.5 µM (inactive) | GI50 (SN12C): > 100 µM (inactive) | GI50 (SNB-19): > 100 µM (inactive) | GI50 (SR): 21.6 µM (inactive) | GI50 (SW-620): 30.7 µM (inactive) | GI50 (T47D): 11.9 µM (inactive) | GI50 (TK-10): > 100 µM (inactive) | GI50 (U-251): 41.6 µM (inactive) | GI50 (UACC-257): 50.4 µM (inactive) | GI50 (UACC-62): 10.7 µM (inactive) | GI50 (UO-31): 33.6 µM (inactive)
